Consider four compounds from US10975063B2, “Compound, and production method thereof, and methods of treatment using the compound” (ABIVAX, priority 2009, dated 2021).

The subject of the assay is HIV-1. In words: Inhibition of HIV-1 production (p24 antigen) in infected peripheral blood mononuclear cells (PBMCs). The class given is cell-based, HIV-1 (AdaM) in PBMCs of healthy donors. The settings on record: tested molecules at 10 μM; p24 after 3 and 6 days of infection; number of donors with inhibition out of donors tested. On the procedure:
Within this framework, the peripheral blood mononuclear cells (PBMCs) of healthy donors are isolated by centrifugation on a FICOLL gradient. The cells are then cultivated to a density of 2.5×10^6 cells/ml with RPMI medium supplemented with 1% inactivated human AB serum, then incubated at 37° C., 5% CO2 for an additional hour. The peripheral blood mononuclear cells are then recovered and cultivated for two days in RPMI medium supplemented with 10% fetal calf serum.
A standard experiment using 96 plates to test 30 molecules in triplicates including positive and negative controls, is performed as follows:
50 10^6 Ficoll purified PBMCs (10% DMSO 90% FCS) are washed with RPMI 10% FCS and resuspended in 25 ml of RPMI 10% FCS, glutamax containing 1000 U/ml of IL2 and 5 μg/ml PHA. The cells are then incubated for 3 days at 37° C. before to be washed with 50 ml PBS then with 50 ml RPMI 10% FCS. The cells are resuspended in 100 μl of RPMI 10% FCS containing 100 U/ml IL2 and seeded in 96 wells (1.5 10^5 cells/well). Viral infection is performed with 1 ng of AdaM/well. 100 μl of tested molecules at concentration of 10 μM are added to each well. Virus production is determined by p24 antigen immunosorbent assays after 3 and 6 days of infection (Kit Innogenetics). Typically PBMCs are prepared from several healthy donors (around 11 different donors). Dose response curves were then established with selected compounds to determine IC50.

`Cc1cccc(Nc2nc3ccccc3cc2C)n1` [Compound 46, 3-methyl-N-(6-methylpyridin-2-yl)quinolin-2-amine]: the “Inhibition of p24 production in HIV infected PBMCs from different donors” value (“Inhibition … from different donors” below) was 4 out of 4 donnors.
In the case of `Cc1c(Cl)cnc(Nc2cnc3ccccc3n2)c1Cl` [Compound 140, N-(3,5-dichloro-4-methylpyridin-2-yl)quinoxalin-2-amine], the “Inhibition … from different donors” value is 4 out of 4 donnors.
`Cc1cc2ccccc2nc1Nc1cccc(OC(F)(F)F)c1` [Compound 92, 3-methyl-N-[3-(trifluoromethoxy)phenyl]quinolin-2-amine]: the “Inhibition … from different donors” value was 3 out of 5 donnors.
With `FC(F)(F)Oc1cccc(Nc2ccc3cccc(Cl)c3n2)c1` [Compound 87, 8-chloro-N-[3-(trifluoromethoxy)phenyl]quinolin-2-amine] the figure was 4 out of 4 donnors.
